Key:
[1] = system: CAL-51 cells; assay: CAL-51 proliferation assay; type: cell-based; conditions: Homo sapiens, CAL-51, 72 h, YO-PRO-1 Iodide readout
Summary of the method: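 Cells seeded at 750 per well, treated next day for 72 h at 37 °C with 0.5% final DMSO. Cell number read by YO-PRO-1 fluorescence after lysis, normalized to DMSO (100%) and time-zero cells (0%). GI50 from 4-parameter logistic fit, maximum constrained to 100%.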

[2] = Body weight changes in SW480 xenograft study; type: in vivo, NOD/SCID mice; conditions: day-17; oral BID*BIW, 45 mg/kg days 1-10, 50 mg/kg days 11-22
Procedure: NOD/SCID mice of circa 23 g of weight were inoculated with 1×10^7 SW480 human colorectal cancer cells in 50% Matrigel™ subcutaneously in a flank. A pair match was performed when tumors reached an average volume of 100-150 mm^3 to distribute animals into treatment group and vehicle control (n=8/group). Tumor volumes (expressed in mm^3) were measured twice weekly using a caliper on days 1, 4, 8, 11, 15, 18, 22 and 23 of the treatment period. (A) The average TVol (±standard error of mean (SEM)) of each treatment group are shown. […] (B) Changes in BW in percentage (expressed in g, ±SEM) on days 1, 4, 8, 11, 15, 18, 22 and 23 of the treatment period. (C) Changes in vehicle- and Example 13-treated TVol expressed in mm^3. TVol ratio of Example 13-treated vs vehicle control (T/C) is indicated.
Female 8-9 weeks of age NOD/SCID mice of about 23 g of weight were used for the study (Jiangsu GemPharmatech Co., Ltd). Mice were inoculated subcutaneously in the flank region with 1×10^7 SW480 cells in PBS mixed with Matrigel™ (1:1) in a final injection volume of 0.2 mL/mouse. Once tumors reached an average size of 100-150 mm^3, a pair match was carried out to distribute mice to the different treatment groups. […]
Tumor volumes (expressed in mm^3) were measured in two dimensions using a caliper on days 1, 4, 8, 11, 15, 18, 22 and 23 of the treatment period. […]

In the case of COCCN(C)c1c(O[C@H]2CC[C@H](N)CC2)ccc2c1CC(C)(C)c1c(N)ncnc1-2 [Example 13, 8-(trans-4-aminocyclohexoxy)-N7-(2-methoxyethyl)-N7,5,5-trimethyl-6H-benzo[h]quinazoline-4,7-diamine], the GI50 [1] was less than 100 nM and the “maximal body weight loss” value [2] was 5%.
